Results on three compounds are retold here after US10729653B2, “Pharmaceutical compositions comprising 2-oxo-1-pyrrolidine derivatives” (UCB BIOPHARMA SRL, priority 2009, dated 2020).

The structures appear in SMILES notation.

Assay [1] deals with pentylenetetrazol-induced clonic convulsions in mice. Description: chemically induced seizures in mice (pentylenetetrazol). The format is in vivo. The note with it: i.p. 30 min before seizure induction; higher ED50 values than in audiogenic mice. Here is the method: The dose was selected based on dose-effect curves in saline-treated animals as the convulsive dose inducing clonic convulsions of all four extremities in 97% of the animals. Immediately after administration of the chemoconvulsant, the mice were placed individually in small plastic cages (25 13 8 cm) and observed for the presence of clonic convulsions in all four extremities, for 60 min. The occurrence of tonic convulsions (hindlimb extension) and mortality was also recorded during this interval. The proportion of mice protected against clonic convulsions was calculated and used as the end point for anticonvulsant activity.

The subject of assay [2] is tonic hindlimb extension induced by a maximal electroshock in mice. As to the kind of experiment: maximal electroshock in mice. In kind it is in vivo. As to conditions: i.p. 30 min before seizure induction; higher ED50 values than in audiogenic mice.
For assay [3], the system named is fully amygdala-kindled rats. Description: fully amygdala-kindled rats. In kind it is in vivo, rat. The note with it: for dose from which a significant suppression in motor-seizure severity is induced: fully amygdala-kindled rats.
In assay [4] the test system is post-herpetic neuralgia. The note with it: patients; cited from earlier work.
For assay [5], the system named is rat hippocampal slices. Description: epileptiform responses in hippocampal slices (CA3 field potentials). As to conditions: for evoked epileptiform responses (PS1 amplitude, repetitive PSs) in CA3: high-K+/low-Ca2+ fluid (HKLCF) perfusion, fimbrial stimulation. In kind it is cell-based, Sprague-Dawley rats. Also noted: rate of spontaneous field bursting: dose or concentration left out as unconfirmed. Here is the method: The effect of brivaracetam on epileptiform responses induced by high-K+/low-Ca2+ concentrations or by bicuculline was examined in transverse hippocampal slices prepared from Sprague-Dawley rats according to previously reported standard procedures. The epileptiform responses were induced by passing from a normal perfusion of artificial cerebrospinal fluid (ACSF) (K+3 mM; Ca2+2.4 mM) to either high-K+/low-Ca2+ fluid (HKLCF) (K+7.5 mM; Ca2+0.5 mM) or to […] bicuculline methiodide (BMI)-containing ACSF.
Extracellular field potentials (FPs) were recorded in the CA3 area of the slices with 2 M NaCl-filled glass microelectrodes. The evoked FPs were recorded at 10-min intervals in response to fimbrial stimulation with constant current rectangular pulses that elicit a single population spike (PS) of 50-75% of the maximal amplitude when the slice is in ACSF. In the HKLCF model, 2 min of spontaneous activity were also recorded, in the middle of each 10-min interval between the recordings of evoked responses.
Either brivaracetam or levetiracetam was added to the bathing fluid of the slices 20 min before shifting from ACSF to either HKLCF or […] BMI-containing ACSF, and was kept in the perfusion fluid throughout the experiment.

Assay [6] has as its system refractory partial onset seizures. As to conditions: adult patients, adjunctive treatment; cited from earlier work.
Assay [7] deals with GAERS rats. Description: spontaneous SWDs in GAERS rats. The format is in vivo, rat.
For assay [8], the system named is genetically sound-sensitive male mice. Description: audiogenic seizures in mice. In kind it is in vivo. The note with it: audiogenic seizure-susceptible mice; i.p., brivaracetam 30 min, levetiracetam 60 min pretreatment. Here is the method: Audiogenic seizures in mice: Genetically sound-sensitive male mice (16-28 g; n=10 per group), responding with wild running, clonic and tonic convulsions to an acoustic stimulation, were used. Audiogenic seizures were induced by an acoustic stimulus (90 dB, 10-20 kHz) applied for 30 s. The mice were pretreated with either saline, brivaracetam (i.p., 30 min) or levetiracetam (i.p., 60 min), and the proportion of mice protected against clonic convulsions was used as the end point to assess anticonvulsant activity.

The subject of assay [9] is corneal kindling of mice. As to the kind of experiment: corneal kindling of mice. The format is in vivo.
Assay [10] deals with rat hippocampal slices. The note with it: background statement; cited from earlier work.

Turning to `CCC[C@@H]1CC(=O)N([C@@H](CC)C(N)=O)C1` [Brivaracetam, (2S)-2-[(4R)-2-oxo-4-propyl-pyrrolidin-1-yl]butanamide], the “protection against clonic convulsions induced by pentylenetetrazol” value in assay [1] is “protected”. For the same compound, in assay [2], the “protection against tonic hindlimb extension induced by a maximal electroshock” value is given as “protected”. The “dose from which a significant suppression in motor-seizure severity is induced” value in [3] is at least 21.2 mg/kg. For the same compound, the after-discharge duration entry in assay [3] (highest dose tested (212.3 mg kg-1)) is “significantly reduced the after-discharge duration”. Besides, in assay [4], the “efficacy in post-herpetic neuralgia” value was “effective in the treatment of patients with post-herpetic neuralgia”. Further, the “rate of spontaneous field bursting” value in [5] (HKLCF) was “reduced the rate of this spontaneous bursting”. The “evoked epileptiform responses (PS1 amplitude, repetitive PSs) in CA3” value in assay [5] is recorded as “reduced these epileptiform responses”. The “efficacy in the treatment of epilepsy” value in assay [6] is “effective in the treatment of epilepsy”. In assay [7] (GAERS rats), the “dose from which spontaneous SWDs are significantly suppressed” value was at least 2.1 mg/kg. Further, in assay [7] (highest dose tested (67.9 mg kg-1)), the “inhibition of spontaneous SWDs” value is “complete inhibition”. For the same compound, in assay [8], the “protection against the expression of clonic convulsions” value is listed as “protected”. Further, in assay [9] (continued corneal stimulations, group previously treated with the highest dose), the “incidence of generalized motor seizures after termination of treatment” value was “persistent reduction in the incidence of generalized motor seizures”. Further, the “incidence of generalized motor seizures” value in assay [9] (pretreatment during corneal kindling, levetiracetam at higher doses) is given as “significant reduction in the incidence of generalized motor seizures”.

On to `CC[C@@H](C(N)=O)N1CCCC1=O` [Levetiracetam], for which the “dose from which a significant suppression in motor-seizure severity is induced” value in [3] is at least 170 mg/kg. In addition, the after-discharge duration entry in assay [3] (up to 1700 mg kg-1) is “inactive”. Also, in assay [5], the “evoked epileptiform responses (PS1 amplitude, repetitive PSs) in CA3” value is “reduced these epileptiform responses”. In addition, the “epileptiform responses induced by high-K+/low-Ca2+ concentrations and by bicuculline” value in [10] is on record as “reduces epileptiform responses”. In addition, in [8], the “protection against the expression of clonic convulsions” value is “protected”.

For the compound `CC[C@@H](C(N)=O)N1C[C@H](C=C(F)F)CC1=O` [Seletracetam, (2S)-2-[(4S)-4-(2,2-difluorovinyl)-2-oxo-pyrrolidin-1-yl]butanamide], the “efficacy in the treatment of epilepsy” value in [6] was “effective in the treatment of epilepsy”.
